Data reported in patent US12110313B2, “Engineered bacterial ribosome compositions and methods” (ARIZONA BOARD OF REGENTS ON BEHALF OF ARIZONA STATE …, priority 2019, dated 2024).

Key:
[1] = tested on: CD40 expression in RAW 264.7 mouse macrophage cells; experiment: CD40 upregulation in RAW 264.7 cells by flow cytometry with PE-conjugated anti-mouse CD40 antibody; type: cell-based
Protocol: FIG. 6. Flow cytometry analysis of RAW 264.7 cells treated with murine IFNs and probed with PE-conjugated anti-mouse CD40 antibody. Upper left, 0.6 pg/mL glycosylated IFN; upper right, 6 pg/mL non-glycosylated IFN; lower left, 0.6 pg/mL non-glycosylated IFN; lower right, control lacking IFN.
These four modified INF-βs were tested in parallel with wild-type (fully glycosylated) mouse IFN-β for their activities. Our assay system uses RAW 264.7 mouse macrophage cells (ATCC TIB-71), which have been transformed using Abelson murine leukemia virus. […] CD40 upregulation was probed using a PE (phycoerythrin)-conjugated anti-mouse CD40 antibody. As shown (FIG. 6), this assay system has been used successfully to compare fully glycosylated and non-glycosylated murine INF-βs by flow cytometry.

wild-type ribosomes = experiment: Incorporation of glycosylated amino acids into proteins from activated suppressor tRNAs by wild-type ribosomes; type: biochemical, E. coli; conditions: nonsense codon suppression with activated suppressor tRNA
Source text: FIG. 3 depicts glycosylated amino acids incorporated into proteins by wild-type E. coli ribosomes.
Many glycosylated amino acids can be incorporated into proteins in quite good yield from activated suppressor tRNAs by nonsense codon suppression employing wild-type ribosomes. However, in numerous experiments, when any of these was O- or N-acetylated at one or more positions, the result was virtually complete loss of the ability of the activated tRNAs to suppress nonsense codons. Accordingly, we have used O-GlcNAc-puromycin (FIG. 4) to select modified ribosomes capable of incorporating N-acetylglycosyl amino acids.
Post-translational protein glycosylation is both ubiquitous in nature and quite important. […] However, for whatever reason(s), neither O- nor N-acetylated glycosyl amino acids could be incorporated in good yield with wild-type ribosomes. We wish to select modified ribosomes capable of incorporating O- or N-acetylated glycosyl amino acids efficiently.

antiviral activity = conditions: murine INF-β, modification at position 29; cited from earlier work

Molecule	response in CD40 upregulation assay [1]	reduction of antiviral activity from wild-type (antiviral activity)	further results
glycosylated IFN-β: fully glycosylated murine interferon-β	dose-dependent responses		potency relative to non-glycosylated IFN-β ([1]; CD40 upregulation): about 10 fold
N[C@@H](Cc1ccc(OC2O[C@H](CO)[C@@H](O[C@@H]3O[C@H](CO)[C@H](O)[C@H](O)[C@H]3O)[C@H](O)[C@H]2O)cc1)C(=O)O (stereo partly drawn) [O-lactosyltyrosine]			incorporation into proteins by wild-type ribosomes (wild-type ribosomes): incorporated into proteins quite well
Asp29: murine INF-β with replacement of Asn29 with Asp29 (protein, UniProt P01575 22-182, looked up, variant N29D) Interferon beta: INYKQLQLQERTNIRKCQELLEQLNGKIDLTYRADFKIPMEMTEKMQKSYTAFAIQEMLQNVFLVFRNNFSSTGWNETIVVRLLDELHQQTVFLKTVLEEKQEERLTWEMSSTALHLKSYYWRVQRYLKLMKYNSYAWMVVRAEIFRNFLIIRRLTRNFQN		two-fold	
Ala29: murine INF-β with replacement of Asn29 with Ala29 (protein, UniProt P01575 22-182, looked up, variant N29A) Interferon beta: INYKQLQLQERTNIRKCQELLEQLNGKIALTYRADFKIPMEMTEKMQKSYTAFAIQEMLQNVFLVFRNNFSSTGWNETIVVRLLDELHQQTVFLKTVLEEKQEERLTWEMSSTALHLKSYYWRVQRYLKLMKYNSYAWMVVRAEIFRNFLIIRRLTRNFQN		10 fold	
non-glycosylated IFN-β: non-glycosylated murine interferon-β (protein, UniProt P01575 22-182, looked up, non-glycosylated) Interferon beta: INYKQLQLQERTNIRKCQELLEQLNGKINLTYRADFKIPMEMTEKMQKSYTAFAIQEMLQNVFLVFRNNFSSTGWNETIVVRLLDELHQQTVFLKTVLEEKQEERLTWEMSSTALHLKSYYWRVQRYLKLMKYNSYAWMVVRAEIFRNFLIIRRLTRNFQN	dose-dependent responses		
